Patent US20060063766A1, “Use of aryl- and heteroaryl-substituted tetrahydroisoquinolines to block reuptake of norepinephrine, dopamine, and serotonin” (priority 2004, published 2006)
Counter-ions that a name gives are not always drawn.

Row | SMILES | melting point
1 | CN1Cc2cc(-c3cccnn3)ccc2C(c2cc3ccccc3s2)C1 (stereo not shown) (as salt: maleate) | 99 to 102 °C
2 | CN1Cc2cc(-c3cccnn3)ccc2C(c2ccc3sccc3c2)C1 (single isomer, unassigned; (+)) (as salt: fumarate) [Example 97, (+)-4-benzo[b]thiophen-5-yl-2-methyl-7-pyridazin-3-yl-1,2,3,4-tetrahydroisoquinoline] | 122 to 124 °C
3 | CN1Cc2cc(C#N)ccc2C(c2ccc3sccc3c2)C1 (stereo not shown) (as salt: fumarate) | 112 to 114 °C
4 | CN1Cc2cc(-c3ncccn3)ccc2C(c2ccc3ccccc3c2)C1.O=C(O)/C=C\C(=O)O (stereo not shown) [Example 140] | 84 to 85 °C
5 | CN1Cc2cc(-c3cccnn3)ccc2C(c2cccc3sccc23)C1 (racemic) (as salt: maleate) | 94 to 97 °C
6 | CN1Cc2cc(C#N)ccc2C(c2cc3ccccc3s2)C1 (stereo not drawn) (as salt: maleate) [Example 79 (−)] | 80 to 84 °C
7 | COc1c(-c2cccnn2)ccc2c1CN(C)CC2c1ccc2ccccc2c1.O=C(O)/C=C/C(=O)O (racemic) | 182 to 186 °C
8 | CN1Cc2cc(-c3ncccn3)ccc2C(c2ccc3ccccc3c2)C1.O=C(O)/C=C\C(=O)O (stereo not drawn) [Example 140 (−)-enantiomer] | 86 to 88 °C
9 | COc1c(C2CN(C)Cc3ccccc32)ccc2ccsc12 (stereo not shown) (as salt: fumarate) | 98 to 99 °C
10 | CN(C)Cc1ccc2c(c1)CN(C)CC2c1ccc2sccc2c1 (racemic) (as salt: fumarate) | 123 to 125 °C
11 | CN1Cc2cc(N3CCOCC3)ccc2C(c2cc3ccccc3s2)C1 (stereo not shown) (as salt: maleate) | 142 to 145 °C
12 | Cc1noc(C)c1-c1ccc2c(c1)CN(C)CC2c1cc2ccccc2s1 (racemic) (as salt: maleate) | 92 to 95 °C
13 | COc1c(O)ccc2c1CN(C)CC2c1ccc2ccccc2c1.O=C(O)/C=C\C(=O)O (stereo not shown) | 85 to 90 °C
14 | Cc1cccc2c1CN(C)CC2c1ccc2ccccc2c1 (stereo not shown) (as salt: hydrochloride) | 210 to 214 °C
15 | CN1Cc2ccccc2C(c2ccc3c(ccn3Cc3ccccc3)c2)C1 (racemic) (as salt: maleate) | 81 to 85 °C
16 | CCN1Cc2ccccc2C(c2ccc3sccc3c2OC)C1 (stereo not shown) (as salt: fumarate) | 91 to 92 °C
17 | CN1Cc2cc(-c3cccnn3)ccc2C(c2ccc3ccccc3c2)C1 (single isomer, unassigned; (+)) (as salt: maleate) [Example 137, (+)-2-methyl-4-napthalen-2-yl-7-pyridazin-3-yl-1,2,3,4-tetrahydroisoquinoline, maleate salt] | 86 to 88 °C
18 | CN1Cc2ccccc2C(c2ccc3sccc3c2O)C1 (stereo not drawn) (as salt: fumarate) [Example 88 (+)] | 213 to 215 °C
19 | CN1Cc2cc(-c3cnccn3)ccc2C(c2cc3ccccc3s2)C1 (racemic) (as salt: maleate) [Example 71, (±)-4-(benzo[b]thiophen-2-yl)-2-methyl-7-(pyrazin-2-yl)-1,2,3,4-tetrahydroisoquinoline] | 102 to 105 °C
20 | CN1Cc2ccccc2C(c2ccc3c(cnn3Cc3cccc(C#N)c3)c2)C1.O=C(O)/C=C\C(=O)O (stereo not shown) | 83 to 88 °C
21 | CN1Cc2ccccc2C(c2ccc3cn[nH]c3c2)C1.O=C(O)/C=C/C(=O)O (stereo not shown) | 110 to 117 °C
22 | COc1c(C2CN(C)Cc3ccccc32)ccc2sccc12 (stereo not drawn) (as salt: fumarate) [Example 82 (−)] | 94 to 96 °C
23 | CN1Cc2cc(-c3ccc(N(C)C)nn3)ccc2C(c2ccc3sccc3c2)C1 (stereo not shown) (as salt: fumarate) | 116 to 119 °C

Row | SMILES | melting point
24 | CN1Cc2ccccc2C(c2nc3ccccc3o2)C1.O=C(O)/C=C\C(=O)O (racemic) | 135 to 140 °C
25 | CN1Cc2ccccc2C(c2nc3ccccc3s2)C1.O=C(O)/C=C\C(=O)O (racemic) | 165 to 170 °C
26 | COc1cccc2c1CN(C)CC2c1ccc2sccc2c1 (racemic) (as salt: fumarate) | 197 to 199 °C
27 | CN1Cc2cc(N3CCOCC3)ccc2C(c2cccc3sccc23)C1 (racemic) (as salt: maleate) | 103 to 107 °C
28 | CN1Cc2ccccc2C(c2ccc3sccc3c2O)C1 (stereo not drawn) (as salt: fumarate) [Example 88 (−)] | 214 to 216 °C
29 | CN1Cc2cc(-c3cncnc3)ccc2C(c2cc3ccccc3s2)C1 (racemic) (as salt: maleate) [Example 73, (±)-4-(benzo[b]thiophen-2-yl)-2-methyl-7-(pyrimidin-5-yl)-1,2,3,4-tetrahydroisoquinoline] | 103 to 107 °C
30 | CN1Cc2cc(C#N)ccc2C(c2cc3ccccc3s2)C1 (stereo not drawn) (as salt: maleate) [Example 79 (+)] | 91 to 94 °C
31 | CN1Cc2cc(-c3ncccn3)ccc2C(c2cc3ccccc3s2)C1 (racemic) (as salt: maleate) | 103 to 106 °C
32 | CN1Cc2ccccc2C(c2ccc3c(Cl)c[nH]c3c2)C1 (racemic) (as salt: maleate) | 94 to 98 °C
33 | CCN1Cc2ccccc2C(c2ccc3sccc3c2O)C1 (stereo not drawn) (as salt: fumarate) [Example 89 (+)] | 158 to 159 °C
34 | COc1c(C2CN(C)Cc3ccccc32)ccc2sccc12 (stereo not drawn) (as salt: fumarate) [82 (+)] | 97 to 99 °C
35 | CN1Cc2ccccc2C(c2ccc3[nH]ncc3c2)C1.O=C(O)/C=C/C(=O)O (stereo not shown) | 83 to 88 °C
36 | Cc1noc(C)c1-c1ccc2c(c1)CN(C)CC2c1ccc2ccccc2c1 (racemic) (as salt: maleate) [Example 142, (±)-7-(3,5-dimethyl-isoxazol-4-yl)-2-methyl-4-napthalen-2-yl-1,2,3,4-tetrahydroisoquinoline, maleate salt] | 88 to 90 °C
37 | CC1c2ccccc2C(c2ccc3sccc3c2)CN1C (racemic) (as salt: fumarate) | 179 to 181 °C
38 | CN1Cc2ccccc2C(c2cccc3ccsc23)C1 (racemic) (as salt: salt) | 228 to 230 °C
39 | CN1Cc2ccccc2C(c2ccc3[nH]ncc3c2)C1 (stereo not shown) | 167 to 169 °C
40 | CCN1Cc2ccccc2C(c2ccc3sccc3c2O)C1 (stereo not drawn) (as salt: fumarate) [Example 89 (−)] | 155 to 157 °C
41 | CN1Cc2cc(CN3CCOCC3)ccc2C(c2cc3ccccc3s2)C1 (single isomer, unassigned) (as salt: maleate) | 80 to 82 °C
42 | CN1Cc2ccccc2C(c2ccc3sncc3c2)C1.O=C(O)/C=C\C(=O)O (stereo not drawn) [Example 135 (−)-enantiomer] | 127 to 129 °C
43 | CN1Cc2ccccc2C(C2=Cc3ccccc3C2)C1 (stereo not shown) (as salt: maleate) | 184 to 187 °C
44 | CN1Cc2c(cccc2N2CCOCC2)C(c2ccc3sccc3c2)C1.O=C(O)/C=C/C(=O)O (racemic) | 148 to 153 °C
45 | CN1Cc2cc(N3CCCC3)ccc2C(c2cc3ccccc3s2)C1 (racemic) (as salt: maleate) | 105 to 108 °C
46 | CN1Cc2ccccc2C(c2cc(Cl)c3[nH]ncc3c2)C1 (single isomer, unassigned; (-)) (as salt: maleate) [Example 125, (−)-4-(7-chloro-1H-indazol-5-yl)-2-methyl-1,2,3,4-tetrahydoisoquinoline, maleate salt] | 104 to 110 °C
